Test results published in US7101844B2, “Cytoplasmic transduction peptides and uses thereof” (Creagene, Inc., priority 2002, dated 2006).
“Also recorded” adds a separate entry of the source.

Key:
[1] = tested on: HeLa cells; experiment: Transduction of PTD- and CTP-β-galactosidase into HeLa cells (X-gal staining after fixation); format: cell-based; details: for transduction potential / order of transduction potentials into HeLa cells: 100 μg/ml, 1 hr; for transduction potential: fixation; for order of transduction potentials into HeLa cells: β-galactosidase fusion, X-gal staining
Text: Although various other substitutions could be performed, it is essential in this invention that the introduction of a positive charge by arginine and the substitution by an α-helix stabilizing amino acid should be carried out for maintaining the principle function of the PTD peptide. Therefore, as a substitute amino acid, the positively charged amino acid is restricted to arginine, and the negatively charged amino acid is restricted to glutamic acid. β-galactosidase was fused to the CTP candidate peptide, the fusion proteins were isolated and purified (see FIG. 2), and HeLa cells were treated with each of the fusion proteins. This was then followed by an analysis of the transduction potential and a determination of the extent of the cytoplasmic remaining property.
The transduction potential of the PTD and CTP candidates was tested with HeLa cells. Using a 24-well plate (Nunc), 5×10^4 HeLa cells were inoculated into high glucose DMEM (containing 10% FBS) and cultured for 36 hr. The cells were rinsed with PBS and treated with 100 μg/ml of PTD- and CTP-β-galactosidase in an opti-MEM I medium. After 1-hr incubation, cells were fixed for 10 min at room temperature with a fixation solution (2% formaldehyde, 0.2% glutaraldehyde in PBS). Then, the cells were rinsed twice with PBS, and stained for 2 hr with dye (0.1% X-gal, 5 mM potassium ferricyanide, 5 mM potassium ferrocyanide, 2 mM MgCl2 in PBS) to examine their transduction potential (see FIG. 3). The samples showing a low level of staining, even after a 2-hr staining, were incubated overnight, and then stained for the relative transduction potential. The transduction potentials of the PTD and CTP candidates into HeLa cells were seen to be in the following order: PTD5<CTP502<<CTP501=CTP506<CTP507<CTP505<CTP503=CTP504<CTP508=CTP510=MTS<CTP509<<PTD=CTP511<<CTP512.

[2] = tested on: HeLa cells; experiment: Subcellular localization of CTP-β-gal by confocal scanning microscope; format: cell-based; details: β-galactosidase fusion protein, 100 μg/ml, 1 hr
Text: To select cytoplamic transduction peptides (CTPs) of interest, HeLa cells were transduced with CTP-β-galactosidase, and then examined under the confocal scanning microscope. Before the confocal analysis, cells were stained with mouse anti-β-galactosidase antibody and 2nd antibodies conjugated with FITC (Fluorescence-iso-thio-cyanate) or with PE (phycoerythrin) together with DNA staining reagent (green fluorescence SYTO-16 DNA staining dye, Molecular Probe). First, HeLa cells (5×10^5 cells/ml) were plated onto a 6-well plate containing sterilized cover-slips and cultured overnight at 37° C. CO2 incubator. The cells were washed with PBS (pH 7.4) and 1 ml of an OPTI-MEM I medium was added, followed by treatment with candidate CTP-fused proteins (100 μg/ml). As a positive control, PTD-β-galactosidase fusion protein was employed, and as a negative control, only β-galactosidase protein was used. Following the treatment with candidate CTP-β-galactosidase fusion proteins, cells were incubated for 1 hr at 37° C. incubator. The cells were rinsed three times with PBS and fixed with 2% paraformaldehyde for 20 min at 4° C. HeLa cells fixed were washed twice with washing buffer (PBS containing 0.2% BSA and 0.02% sodium azide). To stain the cells with antibody, cells were pre-treated with 0.5% Triton X-100 (in PBS, Sigma) at 4° C. for 20 min. Cells were washed three times with washing buffer and then stained with mouse anti-β-galactosidase antibody (diluted 1:2,000, Sigma) for 1 hr at 4° C. as a primary antibody and then washed three times with washing buffer. Cells were then incubated with FITC-conjugated goat anti-mouse IgG (diluted 1:2,000, Jackson Laboratory) as a secondary antibody for 20 min at 4° C. Washed 3 times with the same washing buffer, cells were fixed on a slide glass with fluorescence mounting medium (DAKO) and the edge of slide glass was sealed with nail vanish.
Double staining was carried out with SYTO-16 DNA staining dye as follows: First, the cells were incubated with the primary antibodies under the same conditions and rinsed three times. Then, the cells were incubated at 4° C. for 20 min with PE-conjugated goat anti-mouse IgG PE (diluted 1:2,000, Jackson Laboratory). Washed three times with washing buffer, cells were incubated with SYTO-16 DNA staining dye (diluted 1:1,000, DAKO) for 20 min at 4° C. Cells were fixed and sealed on a slide glass and then examined under a confocal laser scanning microscope.
In the present experiment, LEICA TCS NT SP confocal microscope (LEICA Lasertech GmbH, Heidelverg, Germany) was employed, which was equipped with lager generator of argon (Ar) and krypton (Kr), scanning device, and filter capable of detecting FITC (510–550 nm) and PE (600–660) at independent channel. Photographs were taken by PL-APO X100 objective. For single staining, the cells were sectioned into 4-layers and fluorescence and transmission photographs were taken. For double staining, FITC, PE, and transmission photographs were taken using optimal respective filter.

[3] = tested on: HeLa cells; experiment: Subcellular localization of CTP-FITC by confocal microscope without cell fixation; format: cell-based; details: FITC-labeled peptide, 25 μg/ml, 1 hr
Text: Fixation step is inevitable for examining the subcellular localization of the transduced β-gal in the cells with antibodies. However, according to the previous reports, the fusion protein attached to cell surface is very likely to be introduced into the cell during a cell fixation procedure, which may affect its transduction potential and its subcellular localization. However, FITC-labeled membrane permeation peptides allow its subcellular localization to be observed under a confocal microscope without cell fixation. Monolayered HeLa cells were treated for 1 hr with FITC-labeled CTP, PTD or MTS at a concentration of 25 μg/ml, and washed three times with HBSS, followed by observation under a confocal microscope without cell fixation.

[4] = tested on: HeLa cells; experiment: Transduction potential of CTP-β-gal following treatment with trypsin (staining); format: cell-based; details: 50 μg/ml, 20 hr, trypsin before fixation
Method: HeLa cells were cultured for 1 day in DMEM (high glucose) at a density of 2×10^5/ml in 48-well plates. Cells were washed once with 1× PBS, and then incubated further for additional 20 hr in OPTI-MEM containing PTD-β-gal, MTS-β-gal, CTP501-β-gal or CTP514-β-gal, respectively, at a concentration of 50 μg/ml. Thereafter, the cells were treated with trypsin-EDTA (10×) for 3 min at 37° C. to remove the CPP-β-gal attached to the cell surface, and then rinsed twice with 1× PBS, followed by fixing with a fixation solution for 10 min at room temperature. After washing twice with 1× PBS, the cells were stained with a staining solution for 2 hr at 37° C. and photographed under a microscope (FIG. 6b).

[5] = cited from earlier work
[6] = β-galactosidase fusion protein, HeLa cells

| Substance | transduction potential [1, 6] | order of transduction potentials into HeLa cells [1] | cytoplasmic remaining property / subcellular localization [2] | further results |
| --- | --- | --- | --- | --- |
| CTP501: CTP candidate (1P), sequence PARAARRAARR | low-potential | CTP502<<CTP501=CTP506 |  |  |
| CTP504: CTP candidate (2G), sequence YGRAARRAARR | excellent transduction potential | CTP503=CTP504<CTP508 | high cytoplasmic remaining property | transduction potential as percentage of wild type PTD fusion protein [1, 6]: 10%; transduction potential higher than PTD5 [1, 6]: 20 fold |
| YGRKKRRQRRR [PTD, protein transduction domain of HIV-1 Tat protein, reference compound] |  | CTP509<<PTD=CTP511 |  | subcellular localization [3]: FITC signal only in the nucleus, but not in the cytoplasm |
| CTP506: CTP candidate (2E4E), sequence YEREARRAARR | low-potential | CTP501=CTP506<CTP507 |  |  |
| CTP511: CTP candidate (2G4R8R), sequence YGRRARRRARR | transduction potential similar to the wild type PTD; also recorded: significantly high transduction potential | PTD=CTP511<<CTP512 | significantly high | transduction potential ([1]; β-galactosidase fusion protein, HeLa cells, listed as CTP 511): transduction potential identical to PTD; cytoplasmic remaining property / subcellular localization ([2]; listed as CTP 511): excellent cytoplasmic remaining property; β-gal activity transduced into cells [4]: almost equivalent to that of the PTD |
| PTD5: PTD derivative of the Dowdy group; differs from CTP504 only by alanine at position 2, i.e. YARAARRAARR (CTP50, Table 1) [reference compound] |  | PTD5<CTP502 | relatively increased pattern in terms of the extent it remains in the cytoplasm as compared to PTD | efficiency of delivering peptides into the cell, higher than PTD (TAT) ([5]; peptides, reported by the Dowdy group): 8 fold |
| CTP502: CTP candidate (2P), sequence YPRAARRAARR | low-potential | PTD5<CTP502<<CTP501 |  |  |
| CTP510: CTP candidate (2G4R), sequence YGRRARRAARR |  | CTP508=CTP510=MTS |  |  |
| CTP508: CTP candidate (4K), sequence YARKARRAARR | excellent transduction potential; also recorded: transduction potential lower than wild type PTD; also recorded: significantly high transduction potential | CTP504<CTP508=CTP510=MTS | much stronger cytoplasmic remaining property than PTD; also recorded: much higher than the wild type PTD; also recorded: significantly high | transduction potential as percentage of wild type PTD fusion protein [1, 6]: 20%; subcellular localization [3]: observed only in the cytoplasm, and not in the nucleus |
| CTP507: CTP candidate (2K), sequence YKRAARRAARR | low-potential; also recorded: excellent transduction potential | CTP506<CTP507<CTP505 |  |  |
| CTP509: CTP candidate (2K4K), sequence YKRKARRAARR | transduction potential higher than CTP508; also recorded: transduction potential lower than wild type PTD; also recorded: significantly high transduction potential | MTS<CTP509<<PTD | much stronger cytoplasmic remaining property than PTD; also recorded: much higher than the wild type PTD; also recorded: significantly high |  |
| RRRRRRRRR [Arg polycationic homopolymer] |  |  |  | transduction efficiency greater than Tat PTD ([5]; Wender et al., 2000): 20 fold |
| CTP513: CTP (2G4R5R8R9R), sequence YGRRRRRRRRR |  |  |  | β-gal activity transduced into cells [4]: much more efficient to transduce β-gal into cells than either PTD or MTS; order of transduction potential [3]: CTP512>513>>514; subcellular localization [3]: observed only in the cytoplasm, and not in the nucleus |
| CTP505: CTP candidate (4E), sequence YAREARRAARR | excellent transduction potential | CTP507<CTP505<CTP503 |  |  |
| CTP503: CTP candidate (2R11A), sequence YRRAARRAARA | excellent transduction potential | CTP505<CTP503=CTP504 |  |  |
| CTP514: CTP (2R4R5R8R9R), sequence YRRRRRRRRRR |  |  |  | β-gal activity transduced into cells [4]: almost equivalent to that of the PTD; subcellular localization [3]: observed only in the cytoplasm, and not in the nucleus |
